Laboratory results from the OPERA property sets (Mansouri et al. 2018).

Structure (SMILES)	logP
COc1cccc(C(=O)NC2CCN(Cc3ccc(F)cc3)CC2)c1OC	2.87
CCN(CC)CCC(=O)c1sc(N)nc1C	1.76
CN(c1ccccc1)S(C)(=O)=O	1.02
CN(C)CCN1C(=O)c2ccccc2Nc2cc(Cl)ccc21	3.73
O=C(O)COc1cc(Cl)cc(Cl)c1	2.84
NC12CCCCC1c1ccccc1C2 (configuration not stated)	2.94
CC1c2nc3ccccc3c(=O)n2CN1CCO (configuration not stated)	0.46
COCC(C)n1ccc(=O)c(O)c1C (configuration not stated)	-0.26
CCCCCCOc1ccc(CC(=O)O)cc1	3.96
CC1=C(C)C(=O)C(Cc2cccnc2)=C(C)C1=O	2.55
NC1C2CCC1c1cccc(C(F)(F)F)c1C2 (configuration not stated)	3.65
CCCCC(=O)OCC1OC(n2cc(F)c(=O)[nH]c2=O)CC1OC(=O)CCCC (configuration not stated)	2.72
Nc1cccc(S(=O)(=O)[O-])c1.[Na+]	-3.4
CCCCC(CC)C(=O)N1c2ccc(C)cc2C2CN(C)CCC21 (configuration not stated)	4.14
CCCCN1Cn2c(nc3ccccc3c2=O)C1C (configuration not stated)	1.6
COc1cc(NS(=O)(=O)c2ccc(N)cc2)ncn1	0.7
O=c1[nH]c(=O)n(C2OC(CO)CC2F)cc1F (configuration not stated)	-0.72
NS(=O)(=O)c1cc2c(cc1Cl)NC(C(F)(F)F)NS2(=O)=O (configuration not stated)	0.49
CCCCCC(C)N (configuration not stated)	2.4
CCCCCCCCN(C)N=Nc1[nH]cnc1C(N)=O	3.22
COCCn1ccc(=O)c(O)c1C	-0.41
COc1c(O)ccc(O)c1OC	0.61
CN(C)C=C1OC(=O)C(C#N)=C1c1ccccc1	1.07
CCOC(=O)c1cnc2n(c1=O)CCCC2	0.15
O=C(Nc1ncnc2c1ncn2[C@@H]1O[C@H](CO)C[C@@H]1F)c1ccccc1	0.73
CCCCN(C)C(=O)c1cccc(Oc2ccccc2)c1	3.89

Structure (SMILES)	logP
CN(C)[C@@H]1C(O)=C(C(N)=O)C(=O)[C@@]2(O)C(O)=C3C(=O)c4c(O)cccc4[C@@](C)(O)[C@H]3[C@H](O)[C@@H]12	-0.9
NS(=O)(=O)c1cc2c(cc1[N+](=O)[O-])N=CNS2(=O)=O	0.08
NC(=O)Cc1ccc(C(=O)O)cc1	0.3
COC(=O)c1cc(=O)[nH]c(=O)[nH]1	0.63
CCOC(=O)C=C1NC(=O)C(N2CCCCC2)S1 (configuration not stated)	2.34
Cc1ccc(C(=O)CCN2CCCCC2)c(C)c1	3.71
CCNC(=O)[C@@H](NC(=O)CNC(=O)c1ccccc1)C(C)C	1.05
Nc1ccc(S(=O)(=O)c2c(O)cc(O)cc2O)cc1	1.53
Cc1ccc2nc3c(c(=O)n2c1)CCC3	1.63
Clc1cccc(-c2cc(Cl)cc(Cl)c2)c1	5.81
CN(C)C(=O)c1cccc(Oc2ccccc2)c1	2.57
CCCCCCNC(=O)n1cc(F)c(=O)[nH]c1=O	2.63
CC(=O)OCC1=C(C(=O)O)N2C(=O)C(NC(=O)Cc3cc4ccccc4s3)C2SC1 (configuration not stated)	1.68
O=C(O)Cc1cc(O)ccc1O	0.86
CCC(=O)O[C@]1(C(=O)CCl)[C@@H](C)C[C@H]2[C@@H]3CCC4=CC(=O)C=C[C@]4(C)[C@@]3(F)[C@@H](O)C[C@@]21C	3.5
CC(CN1CCCCC1)C(=O)c1ccccc1 (configuration not stated)	3.51
CCOc1ccc(C=NNC(=N)N)cc1	0.24
CCCCCCCC(=O)N[C@@H]1C(=O)N2[C@@H]1SC(C)(C)[C@@H]2C(=O)O	3.32
CCC(C(=O)OCCc1ccccc1)C(CO)Cc1cncn1C (configuration not stated)	2.31
CC(C)c1ncc([N+](=O)[O-])[nH]1	0.9
CCC1(O)CC2CN(CCc3c([nH]c4ccccc34)C(C(=O)OC)(c3cc4c(cc3OC)N(C)C3C(O)(C(=O)OC)C(OC(=O)CN(C)C)C5(CC)C=CCN6CCC43C65)C2)C1 (configuration not stated)	4.02
COc1ccc(C(=O)OCC2OC(n3cc(I)c(=O)[nH]c3=O)CC2O)cc1 (configuration not stated)	1.38
Cc1ccc(C)c(C)c1C	4
CCOc1ccc(OCC(OC(=S)n2ccnc2)C(C)(C)C)cc1 (configuration not stated)	4.58
CC(C(=O)O)N(C(=O)c1ccccc1)c1ccc(F)c(Cl)c1 (configuration not stated)	2.9
CN(C)C(=O)NCCCCn1nc(-c2ccccc2)ccc1=O	1.58
